Test results as given in PubChem BioAssay (NCI).
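All cell lines were grown in 96-well plates and treated with compound for 48 hours. GI50 marks 50% less growth. At the TGI there is no net growth.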

Legend:
Assay in all cases: DTP human tumour cell line panel, 48 h
[1] = tested on: HCC-2998 colon
[2] = tested on: IGROV1 ovarian
[3] = tested on: NCI-H522 lung
[4] = tested on: OVCAR-3 ovarian
[5] = tested on: OVCAR-8 ovarian
[6] = tested on: SF-268 CNS
[7] = tested on: SK-OV-3 ovarian
[8] = tested on: TK-10 renal
[9] = tested on: HOP-92 NSCLC
[10] = tested on: MDA-MB-435

Cc1c(Cl)ccc2[s+]snc12
TGI [1]: > 100 µM | TGI [2]: > 100 µM | TGI [3]: 41.5 µM | TGI [4]: > 100 µM | TGI [5]: 57.1 µM | TGI [6]: 62.8 µM | TGI [7]: > 100 µM | TGI [8]: > 100 µM

COc1cc(Br)c(C2OCCCO2)cc1OCc1ccccc1
TGI [9]: 64.3 µM | TGI [2]: > 100 µM | TGI [3]: > 100 µM | TGI [4]: > 100 µM | TGI [5]: > 100 µM | TGI [6]: > 100 µM | TGI [7]: > 100 µM | TGI [8]: > 100 µM

CC(C)CC(=O)O[C@H]1C(=O)O[C@@H]2C[C@H]3[C@H](C)C(=O)C(O[C@@H]4O[C@H](CO)[C@@H](O)[C@H](O)[C@H]4O)=C[C@]3(C)[C@H]3[C@@H](O)[C@H](O)[C@]4(C(=O)O)OC[C@]32[C@@H]14
GI50 [1]: 20.6 µM | TGI [1]: 54.4 µM | GI50 [9]: 37 µM | TGI [9]: > 100 µM | GI50 [2]: 35.4 µM | TGI [2]: > 100 µM | TGI [10]: > 100 µM | GI50 [4]: 36.4 µM | TGI [4]: > 100 µM | GI50 [5]: > 100 µM | TGI [5]: > 100 µM | GI50 [6]: > 100 µM | TGI [6]: > 100 µM | TGI [7]: > 100 µM | TGI [8]: > 100 µM

c1c[nH]c(CN2CCN(Cc3ncc[nH]3)CC2)n1
TGI [9]: > 100 µM | TGI [2]: > 100 µM | TGI [10]: > 100 µM | TGI [3]: > 100 µM | TGI [4]: > 100 µM | TGI [5]: > 100 µM | TGI [6]: > 100 µM | TGI [7]: > 100 µM | TGI [8]: > 100 µM

Cc1nn(-c2ccccc2)c2c1[C@@H](C)[C@H]1CC3(CC4(C)C[C@@H]3C1(C)c1c(C)nn(-c3ccccc3)c1N4C)N2C (some centres undefined)
GI50 [1]: > 100 µM | TGI [1]: > 100 µM | GI50 [9]: 0.792 µM | TGI [9]: 8.68 µM | GI50 [2]: > 100 µM | TGI [2]: > 100 µM | GI50 [3]: 3.88 µM | TGI [3]: > 100 µM | GI50 [6]: > 100 µM | TGI [6]: > 100 µM | GI50 [7]: 24.1 µM | TGI [7]: > 100 µM | GI50 [8]: > 100 µM | TGI [8]: > 100 µM

O=C1N(c2ccccc2)C2(O)C(=O)c3ccccc3C2(O)N1c1ccccc1 (centres undefined)
TGI [1]: > 100 µM | TGI [2]: > 100 µM | TGI [3]: > 100 µM | TGI [4]: > 100 µM | TGI [5]: > 100 µM | TGI [6]: > 100 µM | TGI [7]: > 100 µM | TGI [8]: > 100 µM

O=C(CC1(O)C(=O)Nc2ccc(Br)cc21)c1cccc([N+](=O)[O-])c1 (centres undefined)
TGI [1]: > 100 µM | TGI [9]: 74.6 µM | TGI [3]: 67.2 µM | TGI [4]: > 100 µM | TGI [5]: > 100 µM | TGI [6]: > 100 µM | TGI [7]: > 100 µM | TGI [8]: > 100 µM

C/C(=N\NC(N)=S)c1ccc(Oc2ccccc2)cc1
TGI [1]: 28.7 µM | TGI [9]: 9.48 µM | TGI [2]: 12.5 µM | TGI [4]: 22.9 µM | TGI [5]: 52.3 µM | TGI [7]: 36.3 µM | TGI [8]: 21.8 µM

O=c1[nH]c2c(ccc3cnccc32)c2c1CCC2
GI50 [1]: 0.356 µM | TGI [1]: 1.91 µM | GI50 [2]: 0.258 µM | TGI [2]: 0.923 µM | GI50 [10]: 0.307 µM | TGI [10]: 1.38 µM | GI50 [3]: 0.277 µM | GI50 [4]: 0.277 µM | TGI [4]: 11.7 µM | GI50 [5]: 0.331 µM | TGI [5]: > 100 µM | GI50 [6]: 0.333 µM | TGI [6]: 37.3 µM | GI50 [7]: 1.7 µM | TGI [7]: > 100 µM | GI50 [8]: 0.331 µM

CC[C@H]1CNC(=O)CC1CC(=O)OC (some centres undefined)
TGI [1]: > 100 µM | TGI [2]: > 100 µM | TGI [3]: > 100 µM | TGI [5]: > 100 µM | TGI [6]: > 100 µM | TGI [7]: > 100 µM | TGI [8]: > 100 µM

Cc1cc(Br)ccc1N=NC1C(=O)ON=C1c1ccccc1 (centres undefined)
TGI [1]: 76.4 µM | TGI [9]: > 100 µM | TGI [2]: > 100 µM | TGI [3]: > 100 µM | TGI [4]: > 100 µM | TGI [5]: > 100 µM | TGI [6]: > 100 µM | TGI [7]: > 100 µM | TGI [8]: > 100 µM
